Experiments:
Format in all cases: cell-based
BRAF(V600E) = BRAF(V600E) (Homo sapiens, UniProt P15056, V600E); test: Immunoblot of BRAF protein levels in A375 cells; settings: 24 h
pMEK and pERK levels = test: Pathway signaling; settings: A375 cells, 100 nM, 24 h
BRAF(WT) = BRAF(WT) (Homo sapiens, UniProt P15056); test: Immunoblot of BRAF levels in HCT116 cells; settings: KRAS(G13D), 24h
A375 cells = test: RNAseq transcriptome analysis; settings: 200nM, 20 hours
HCT116 cell line = test: Proliferation and pathway signaling; settings: HCT116, KRAS(G13D)
pERK = pERK AlphaLISA in MeWo cells

BRAF(V600E), sequence (P15056 whole entry V600E): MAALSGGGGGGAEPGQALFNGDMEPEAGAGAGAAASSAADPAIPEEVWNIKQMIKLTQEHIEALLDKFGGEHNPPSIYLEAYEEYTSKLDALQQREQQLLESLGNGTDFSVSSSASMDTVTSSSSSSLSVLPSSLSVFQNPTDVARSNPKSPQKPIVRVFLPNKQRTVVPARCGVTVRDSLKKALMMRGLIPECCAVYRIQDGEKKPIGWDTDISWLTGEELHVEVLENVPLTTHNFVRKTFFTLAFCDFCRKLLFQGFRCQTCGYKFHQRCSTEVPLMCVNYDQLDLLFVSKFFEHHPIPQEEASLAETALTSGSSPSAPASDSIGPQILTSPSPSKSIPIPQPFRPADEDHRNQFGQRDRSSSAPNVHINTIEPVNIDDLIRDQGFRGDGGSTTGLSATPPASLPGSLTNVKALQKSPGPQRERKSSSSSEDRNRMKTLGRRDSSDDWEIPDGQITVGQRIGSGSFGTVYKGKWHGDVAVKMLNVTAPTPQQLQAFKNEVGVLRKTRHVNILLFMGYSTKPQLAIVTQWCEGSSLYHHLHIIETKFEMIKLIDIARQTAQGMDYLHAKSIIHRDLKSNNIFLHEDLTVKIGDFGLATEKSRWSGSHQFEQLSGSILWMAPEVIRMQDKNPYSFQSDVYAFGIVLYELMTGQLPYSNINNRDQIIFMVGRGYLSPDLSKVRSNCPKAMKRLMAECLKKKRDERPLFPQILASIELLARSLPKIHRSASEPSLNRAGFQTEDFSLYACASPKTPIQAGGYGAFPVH
BRAF(WT), sequence (P15056 whole entry): as the sequence (P15056 whole entry V600E) above, with E600V counted along it

Compound | reduction of BRAF(V600E) protein levels (BRAF(V600E); 100 nM) | repression of pathway signaling (pMEK and pERK levels) | ability to reduce BRAF levels (BRAF(WT)) | number of genes altered (differentially expressed) (A375 cells) | inhibiting cell proliferation and pathway signaling (HCT116 cell line) | effect on ERK activation (pERK) (pERK) | effect on BRAF protein levels (degrader function) (BRAF(V600E))
CCCS(=O)(=O)Nc1ccc(F)c(-n2cc(-c3cncnc3)c3nc(N(C)C4CCN(CC)CC4)ccc32)c1F [BI 882370*] | no effect on BRAF(V600E) levels | comparable to P4B and P5B | no ability to reduce BRAF levels | 195 | equally ineffective | induced paradoxical ERK activation | –
Nc1cccc2c1C(=O)N(C1CCC(=O)NC1=O)C2=O (stereo not shown) [pomalidomide] | – | – | – | – | – | – | failed to reduce BRAF protein levels

Source: paper PMC7862923 (Nature chemical biology, 2020)
